# Patent publication US20210363152A1, “AMINOAZINE AMIDES” (Hoffmann-La Roche Inc., priority 2018, published 2021)
# Molecular target: T1, Autotaxin enzyme (ATX) (Homo sapiens, UniProt Q13822)
# T1 construct: purchased Echelon Biosciences, Inc. E-4000
# Assay: In vitro ATX assay (enzymatic ATX inhibition, LPC 14:0 substrate, choline oxidase/HRP absorbance readout)
# Type: biochemical
# Settings: 0.3 mM LPC 14:0, 37° C., 4 hours, absorbance 555 nm
# Procedure, shortened: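 Human ATX (10 ng/mL as added) in pH 9.0 Tris buffer with NaCl, MgCl2, CoCl2 and Triton X-100 was preincubated with compound for 15 min at 37 °C. LPC 14:0 (0.3 mM final) was then hydrolysed for 4 h at 37 °C. Released choline was detected by choline oxidase/HRP with 4-AAP/TOOS, read after 15 min RT as absorbance at 555 nm, giving banded IC50 values.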
row,SMILES,IC50 [nM]
1,"CC(C)(O)C1CCN1C(=O)c1cnc(NCc2cc(OC(F)(F)F)cc(C3CC3)c2)nc1 (stereo not drawn) [Example 115, (2-((3-cyclopropyl-5-(trifluoromethoxy)benzyl)ami-no)pyrimidin-5-yl)(2-(2-hydroxypropan-2-yl)azetidin-1-yl)methanone]",< 100
2,"CCc1cc(CNc2ncc(C(=O)N3CCC34COC4)cn2)cc(OC(F)(F)F)c1 [Example 123, (2-((3-Ethyl-5-(trifluoromethoxy)benzyl)amino)pyrimidin-5-yl)(6-oxa-1-azaspiro[3.3]heptan-1-yl)methanone]",< 100
3,"Cc1ccc2c(c1)CC(Nc1ncc(C(=O)N3CCC34COC4)cn1)C2 (stereo not drawn) [Example 124, (2-((5-Methyl-2,3-dihydro-1H-inden-2-yl)amino)pyrimidin-5-yl)(6-oxa-1-azaspiro[3.3]heptan-1-yl)methanone]",100 to 1000
4,"O=C(c1cnc(NC2Cc3ccc(C4CC4)cc3C2)nc1)N1CCC12COC2 (stereo not drawn) [Example 125, (2-((5-Cyclopropyl-2,3-dihydro-1H-inden-2-yl)amino)pyrimidin-5-yl)(6-oxa-1-azaspiro[3.3]heptan-1-yl)methanone]",< 100
5,"CCc1ccc2c(c1)CC(Nc1ncc(C(=O)N3CCC34COC4)cn1)C2 (stereo not drawn) [Example 126, (2-((5-Ethyl-2,3-dihydro-1H-inden-2-yl)amino)pyrimidin-5-yl) (6-oxa-1-azaspiro[3.3]heptan-1-yl)methanone]",100 to 1000
6,"O=C(c1cnc(NC2Cc3cc(Br)c(Br)cc3C2)nc1)N1CCC12COC2 [Example 127, (2-((5,6-Dibromo-2,3-dihydro-1H-inden-2-yl)amino)pyrimidin-5-yl)(6-oxa-1-azaspiro[3.3]heptan-1-yl)methanone]",100 to 1000
7,"Cc1cc2c(cc1C)CC(Nc1ncc(C(=O)N3CCC34COC4)cn1)C2 [Example 128, (2-((5,6-Dimethyl-2,3-dihydro-1H-inden-2-yl)amino)pyrimidin-5-yl)(6-oxa-1-azaspiro[3.3]heptan-1-yl)methanone]",≥ 1000
8,"O=C(c1cnc(N[C@@H]2Cc3ccc(Cl)cc3C2)nc1)N1CCC12COC2 [Example 129, (R)-(2-((5-Chloro-2,3-dihydro-1H-inden-2-yl)amino)pyrimidin-5-yl)(6-oxa-1-azaspiro[3.3]heptan-1-yl)methanone]",< 100
9,"O=C(c1cnc(N[C@H]2Cc3ccc(Cl)cc3C2)nc1)N1CCC12COC2 [Example 130, (S)-(2-((5-Chloro-2,3-dihydro-1H-inden-2-yl)amino)pyrimidin-5-yl)(6-oxa-1-azaspiro[3.3]heptan-1-yl)methanone]",100 to 1000
10,"CC(C)(O)C1CCN1C(=O)c1cnc(N[C@@H]2Cc3ccc(Cl)cc3C2)nc1 (stereo partly drawn) [Example 131, (2-(((R)-5-Chloro-2,3-dihydro-1H-inden-2-yl)amino)pyrimidin-5-yl)(2-(2-hydroxypropan-2-yl)azetidin-1-yl)methanone]",< 100
11,"O=C(c1cnc(N[C@@H]2Cc3ccc(Cl)cc3C2)nc1)N1CCC12CCOC2 (stereo partly drawn) [Example 132, (2-(((R)-5-Chloro-2,3-dihydro-1H-inden-2-yl)amino)pyrimidin-5-yl)(6-oxa-1-azaspiro[3.4]octan-1-yl)methanone]",< 100
12,"CC1CCN1C(=O)c1cnc(N[C@@H]2Cc3ccc(Cl)cc3C2)nc1 (stereo partly drawn) [Example 133, (2-(((R)-5-Chloro-2,3-dihydro-1H-inden-2-yl)amino)pyrimidin-5-yl)(2-methylazetidin-1-yl)methanone]",< 100
13,"CC1(O)CC2(CCN2C(=O)c2cnc(N[C@@H]3Cc4ccc(Cl)cc4C3)nc2)C1 (stereo partly drawn) [Example 134, (R)-(2-((5-Chloro-2,3-dihydro-1H-inden-2-yl)amino)pyrimidin-5-yl)(6-hydroxy-6-methyl-1-azaspiro[3.3]heptan-1-yl)methanone]",< 100
14,CC(C)(O)[C@@H]1CCN1C(=O)c1cnc(N[C@@H]2Cc3ccc(Cl)cc3C2)nc1 [Example 135],< 100
15,"CC(C)(O)[C@H]1CCN1C(=O)c1cnc(N[C@@H]2Cc3ccc(Cl)cc3C2)nc1 [Example 136, (2-(((R)-5-Chloro-2,3-dihydro-1H-inden-2-yl)amino)pyrimidin-5-yl) ((R)-2-(2-hydroxypropan-2-yl)azetidin-1-yl)methanone]",< 100
16,"CS(=O)(=O)c1cc(CNc2ncc(C(=O)N3CCC34COC4)cn2)cc(OC(F)(F)F)c1 [Example 137, (2-((3-(Methylsulfonyl)-5-(trifluoromethoxy)benzyl)amino)pyrimidin-5-yl)(6-oxa-1-azaspiro[3.3]heptan-1-yl)methanone]",≥ 1000
17,"CS(=O)(=O)c1ccc2c(c1)CC(Nc1ncc(C(=O)N3CCC34COC4)cn1)C2 (stereo not drawn) [Example 138, (2-((5-(Methylsulfonyl)-2,3-dihydro-1H-inden-2-yl)amino)pyrimidin-5-yl)(6-oxa-1-azaspiro[3.3]heptan-1-yl)methanone]",≥ 1000

row,SMILES,IC50 [nM]
1,"N#Cc1cc(CNc2ncc(C(=O)N3CCC34COC4)cn2)cc(OC(F)(F)F)c1 [Example 139, 3-(((5-(6-Oxa-1-azaspiro[3.3]heptane-1-carbonyl)pyrimidin-2-yl)amino)methyl)-5-(trifluoromethoxy)benzonitrile]",100 to 1000
2,"NC(=O)c1cc(CNc2ncc(C(=O)N3CCC34COC4)cn2)cc(OC(F)(F)F)c1 [Example 140, 3-(((5-(6-Oxa-1-azaspiro[3.3]heptane-1-carbonyl)pyrimidin-2-yl)amino)methyl)-5-(trifluoromethoxy)benzamide]",≥ 1000
3,"O=C(c1cnc(NCc2cc(OC(F)(F)F)cc(C3CC3)c2)nc1)N1CCC12CNC2 [Example 141, (2-((3-Cyclopropyl-5-(trifluoromethoxy)benzyl)amino)pyrimidin-5-yl)(1,6-diazaspiro[3.3]heptan-1-yl)methanone]",< 100
4,"CN1CC2(CCN2C(=O)c2cnc(NCc3cc(OC(F)(F)F)cc(C4CC4)c3)nc2)C1 [Example 142, (2-((3-Cyclopropyl-5-(trifluoromethoxy)benzyl)amino)pyrimidin-5-yl)(6-methyl-1,6-diazaspiro[3.3]heptan-1-yl)methanone]",< 100
5,"CCN1CC2(CCN2C(=O)c2cnc(NCc3cc(OC(F)(F)F)cc(C4CC4)c3)nc2)C1 [Example 143, (2-((3-Cyclopropyl-5-(trifluoromethoxy)benzyl)amino)pyrimidin-5-yl)(6-ethyl-1,6-diazaspiro[3.3]heptan-1-yl)methanone]",< 100
6,"O=C(c1cnc(NCc2cc(OC(F)(F)F)cc(C3CC3)c2)nc1)N1CCC12CN(C1CCC1)C2 [Example 144, (6-Cyclobutyl-1,6-diazaspiro[3.3]heptan-1-yl)(2-((3-cyclopropyl-5-(trifluoromethoxy)benzyl)amino)pyrimidin-5-yl)methanone]",< 100
7,"O=C(c1cnc(NCc2cc(OC(F)(F)F)cc(C3CC3)c2)nc1)N1CCC12CN(C1COC1)C2 [Example 145, (2-((3-Cyclopropyl-5-(trifluoromethoxy)benzyl)amino)pyrimidin-5-yl) (6-(oxetan-3-yl)-1,6-diazaspiro[3.3]heptan-1-yl)methanone]",< 100
8,"O=C(c1cnc(NCc2cc(OC(F)(F)F)cc(C3CC3)c2)nc1)N1CCC12CN(C1CC1)C2 [Example 146, (2-((3-Cyclopropyl-5-(trifluoromethoxy)benzyl)amino)pyrimidin-5-yl) (6-cyclopropyl-1,6-diazaspiro[3.3]heptan-1-yl)methanone]",< 100
9,"CC(C)N1CC2(CCN2C(=O)c2cnc(NCc3cc(OC(F)(F)F)cc(C4CC4)c3)nc2)C1 [Example 147, (2-((3-Cyclopropyl-5-(trifluoromethoxy)benzyl)amino)pyrimidin-5-yl) (6-isopropyl-1,6-diazaspiro[3.3]heptan-1-yl)methanone]",< 100
10,"O=C(c1cnc(NCc2cc(OC(F)(F)F)cc(C3CC3)c2)nc1)N1CCC12CN(CC(F)(F)F)C2 [Example 148, (2-((3-Cyclopropyl-5-(trifluoromethoxy)benzyl)amino)pyrimidin-5-yl) (6-(2,2,2-trifluoroethyl)-1,6-diazaspiro[3.3]heptan-1-yl)methanone]",< 100
11,"O=C(c1cnc(NCc2cc(OC(F)(F)F)cc(C3CC3)c2)nc1)N1CCC12CN(CC(F)F)C2 [Example 149, (2-((3-Cyclopropyl-5-(trifluoromethoxy)benzyl)amino)pyrimidin-5-yl) (6-(2,2-difluoroethyl)-1,6-diazaspiro[3.3]heptan-1-yl)methanone]",< 100
12,"CS(=O)(=O)CCN1CC2(CCN2C(=O)c2cnc(NCc3cc(OC(F)(F)F)cc(C4CC4)c3)nc2)C1 [Example 150, (2-((3-Cyclopropyl-5-(trifluoromethoxy)benzyl)amino)pyrimidine-5-yl) (6-(2-(methylsulfonyl)ethyl)-1,6-diazaspiro[3.3]heptan-1-yl)methanone]",< 100
13,"CC(C)c1cc(CNc2ncc(C(=O)N3CCC34CN(S(C)(=O)=O)C4)cn2)cc(OC(F)(F)F)c1 [Example 151, (2-((3-Isopropyl-5-(trifluoromethoxy)benzyl)amino)pyrimidin-5-yl) (6-(methylsulfonyl)-1,6-diazaspiro[3.3]heptan-1-yl)methanone]",< 100
14,"CS(=O)(=O)N1CC2(CCN2C(=O)c2cnc(NC3Cc4ccc(Cl)cc4C3)nc2)C1 (stereo not drawn) [Example 152, (2-((5-Chloro-2,3-dihydro-1H-inden-2-yl)amino)pyrimidin-5-yl)(6-(methylsulfonyl)-1,6-diazaspiro[3.3]heptan-1-yl)methanone]",< 100
15,"CC(=O)N1CC2(CCN2C(=O)c2cnc(NCc3cc(OC(F)(F)F)cc(C4CC4)c3)nc2)C1 [Example 153, 1-(1-(2-((3-Cyclopropyl-5-(trifluoromethoxy)benzyl)amino)pyrimidine-5-carbonyl)-1,6-diazaspiro[3.3]heptan-6-yl)ethanone]",< 100
16,"CC(=O)N1CC2(CCN2C(=O)c2cnc(NC3Cc4ccc(Cl)cc4C3)nc2)C1 (stereo not drawn) [Example 154, 1-(1-(2-((5-Chloro-2,3-dihydro-1H-inden-2-yl)amino)pyrimidine-5-carbonyl)-1,6-diazaspiro[3.3]heptan-6-yl)ethanone]",< 100
